Data as given in patent US9370507B2, “Pyridonyl guanidine F1F0-ATPase inhibitors and therapeutic uses thereof” (Lycera Corporation, priority 2010, dated 2016).

Experiments:
F1F0-ATPase = target: T1, F1F0-ATPase (Bos taurus, UniProt P13621); assay: Inhibition of F1F0-ATPase activity in synthesizing ATP; assay type: biochemical; conditions: inhibition of ATP synthesis; read-out: ATP Syn IC50
T1 construct: from tissue
Protocol: (§1) The compounds listed in Table 4 were tested for activity against F1F0-ATPase by measuring the ability of the compounds to inhibit ATP synthesis. In addition, the compounds were assessed for cytotoxicity in Ramos cells Inhibition of F1F0-ATPase activity in synthesizing ATP and cytotoxicity in Ramos cells were measured according to the procedures described in K. M. Johnson et al. Chemistry & Biology 2005, 12, 485-496.

Ramos cells = assay: Cytotoxicity in Ramos cells; assay type: cell-based; conditions: Homo sapiens, read-out: Ramos Cell EC50
Protocol: as §1

Row | SMILES | IC50 (F1F0-ATPase) | EC50 (Ramos cells)
1 | O=C(/N=C(/NCc1cccc(C(F)(F)F)c1)Nc1cccc(O)n1)c1ccc(C(F)(F)F)cc1 [Compound A-33] | < 10 µM | < 10 µM
2 | O=C(/N=C(/NCc1ccc(C(F)(F)F)cc1)Nc1cccc(O)n1)c1ccc(C(F)(F)F)cc1 [Compound A-34] | < 10 µM | < 10 µM
3 | O=C(/N=C(/NCc1ccc(C(F)(F)F)cc1)Nc1cccc(O)n1)c1ccc(F)c(F)c1 [Compound A-35] | < 10 µM | < 10 µM
4 | O=C(/N=C(/NCc1ccc(F)c(F)c1)Nc1cccc(O)n1)c1ccc(C(F)(F)F)cc1 [Compound A-36] | < 10 µM | < 10 µM
5 | O=C(/N=C(/NCc1cc(F)c(F)c(F)c1)Nc1cccc(O)n1)c1ccc(C(F)(F)F)cc1 [Compound A-37] | < 10 µM | < 10 µM
6 | O=C(/N=C(/NCc1c(F)cc(F)cc1F)Nc1cccc(O)n1)c1ccc(C(F)(F)F)cc1 [Compound A-38] | < 10 µM | < 10 µM
7 | O=C(/N=C(\Nc1cccc(O)n1)NC1CCCCCC1)c1ccc(C(F)(F)F)cc1 [Compound A-39] | < 10 µM | < 10 µM
8 | O=C(/N=C(/NCC1CC1)Nc1cccc(O)n1)c1ccc(C(F)(F)F)cc1 [Compound A-40] | < 10 µM | < 10 µM
9 | CC(C)(C)N/C(=N/C(=O)c1ccc(C(F)(F)F)cc1)Nc1cccc(O)n1 [Compound A-41] | < 10 µM | < 10 µM
10 | O=C(/N=C(/NCC1CCCCC1)Nc1cccc(O)n1)c1ccc(C(F)(F)F)cc1 [Compound A-42] | < 10 µM | < 10 µM
11 | CC1CCCCC1NC(=NC(=O)c1ccc(C(F)(F)F)cc1)Nc1cccc(O)n1 (stereo not shown) [Compound A-43] | < 10 µM | > 10 µM
12 | CC(C)(C)N/C(=N\C(=O)c1ccc(Cl)c(F)c1)Nc1cccc(O)n1 [Compound A-44] | < 10 µM | < 10 µM
13 | CC(C)(C)N/C(=N\C(=O)c1ccc(F)c(F)c1)Nc1cccc(O)n1 [Compound A-45] | < 10 µM | < 10 µM
14 | CC1(N/C(=N\C(=O)c2ccc(C(F)(F)F)cc2)Nc2cccc(O)n2)CC1 [Compound A-46] | < 10 µM | < 10 µM
15 | CC1(N/C(=N\C(=O)c2ccc(C(F)(F)F)cc2)Nc2cccc(O)n2)CCC1 [Compound A-47] | < 10 µM | < 10 µM
16 | O=C(/N=C(\Nc1cccc(O)n1)NC1CC1)c1ccc(C(F)(F)F)cc1 [Compound A-48] | < 10 µM | > 10 µM

Row | SMILES | IC50 (F1F0-ATPase) | EC50 (Ramos cells)
17 | O=C(/N=C(/Nc1cccc(O)n1)NC1CC1)c1ccc(F)c(F)c1 [Compound A-49] | > 10 µM | > 10 µM
18 | O=C(/N=C(/Nc1cccc(O)n1)NC1CC1)c1ccc(Cl)c(F)c1 [Compound A-50] | < 10 µM | > 10 µM
19 | CC(C)(N/C(=N/C(=O)c1ccc(C(F)(F)F)cc1)Nc1cccc(O)n1)C(F)(F)F [Compound A-51] | < 10 µM | < 10 µM
20 | O=C(/N=C(/NCC(F)(F)F)Nc1cccc(O)n1)c1ccc(C(F)(F)F)cc1 [Compound A-52] | < 10 µM | < 10 µM
21 | Cc1cc(CN/C(=N/C(=O)c2ccc(C(F)(F)F)cc2)Nc2cccc(O)n2)no1 [Compound A-53] | < 10 µM | < 10 µM
22 | Cc1cc(CN/C(=N/C(=O)c2ccc(F)c(F)c2)Nc2cccc(O)n2)no1 [Compound A-54] | < 10 µM | > 10 µM
23 | Cc1cc(CN/C(=N/C(=O)c2ccc(Cl)c(F)c2)Nc2cccc(O)n2)no1 [Compound A-55] | < 10 µM | > 10 µM
24 | O=C(/N=C(\NCC(F)(F)F)Nc1cccc(O)n1)c1ccc(Cl)cc1 [Compound A-56] | < 10 µM | < 10 µM
25 | CC(C)(N/C(=N\C(=O)c1ccc(Cl)cc1)Nc1cccc(O)n1)C(F)(F)F [Compound A-57] | < 10 µM | < 10 µM
26 | CC1(N/C(=N\C(=O)c2ccc(Cl)cc2)Nc2cccc(O)n2)CCC1 [Compound A-58] | < 10 µM | < 10 µM
27 | O=C(/N=C(/Nc1cccc(O)n1)NC(C1CC1)C1CC1)c1ccc(C(F)(F)F)cc1 [Compound A-59] | < 10 µM | < 10 µM
28 | O=C(/N=C(/NCc1cc(F)c(F)c(F)c1)Nc1cccc(O)n1)c1ccc(Cl)cc1 [Compound A-60] | < 10 µM | > 10 µM
29 | CC1(N/C(=N/C(=O)c2ccc(C(F)(F)F)cc2)Nc2cccc(O)n2)CCCC1 [Compound A-61] | < 10 µM | < 10 µM
30 | CC1(N/C(=N/C(=O)c2ccc(Cl)cc2)Nc2cccc(O)n2)CCCC1 [Compound A-62] | < 10 µM | < 10 µM
31 | O=C(N=C(Nc1cccc(O)n1)NC1CCC(C(F)(F)F)CC1)c1ccc(C(F)(F)F)cc1 (stereo not shown) [Compound A-63] | < 10 µM | < 10 µM
32 | O=C(N=C(Nc1cccc(O)n1)NC1CCC(C(F)(F)F)CC1)c1ccc(Cl)cc1 (stereo not shown) [Compound A-64] | < 10 µM | < 10 µM
